What all share (type): biochemical
The target of experiment [1] is T1, porcine dipeptidyl peptidase II (DP II) (Sus scrofa, UniProt A0A5G2QK18).
T1 construct: The enzyme used was purified from porcine kidney; from tissue; host or cells: porcine kidney
In words: Inhibition of DPIV-like enzymes, dipeptidyl peptidase II. Particulars: lysylalanylaminomethylcoumarine, 30° C.; read-out: Ki against porcine dipeptidyl peptidase II. How it is done:
DP II (3.4.14.2) releases N-terminal dipeptides from oligopeptides if the N-terminus is not protonated (McDonald, J. K., Ellis, S. & Reilly, T. J., 1966, J. Biol. Chem., 241, 1494-1501). Pro and Ala in Pi-position are preferred residues. The enzyme activity is described as DPIV-like activity, but DP II has an acidic pH-optimum. The enzyme used was purified from porcine kidney.
100 μl glutaminyl pyrrolidine or glutaminyl thiazolidine in an concentration range of 1*10^−4 M-5*10^−8 M were admixed with 100 μl μl buffer solution (40 mM HEPES, pH7.6, 0.015% Brij, 1 mM DTT), 50 μl lysylalanylaminomethylcoumarine solution (5 mM) and 20 μl porcine DP II (250fold diluted in buffer solution). Fluorescence measurement was performed at 30° C. and λexiatation=380 nm, λemission=465 nm for 25 min using a plate reader (HTS7000plus, Applied Biosystems, Weiterstadt, Germany).

Experiment [2] has as its target T2, Dipeptidyl Peptidase I (DP I, Cathepsin C) (Rattus norvegicus, UniProt P80067).
T2 construct: purchased Qiagen GmbH, Hilden, Germany
T2 sequence (P80067 25-462): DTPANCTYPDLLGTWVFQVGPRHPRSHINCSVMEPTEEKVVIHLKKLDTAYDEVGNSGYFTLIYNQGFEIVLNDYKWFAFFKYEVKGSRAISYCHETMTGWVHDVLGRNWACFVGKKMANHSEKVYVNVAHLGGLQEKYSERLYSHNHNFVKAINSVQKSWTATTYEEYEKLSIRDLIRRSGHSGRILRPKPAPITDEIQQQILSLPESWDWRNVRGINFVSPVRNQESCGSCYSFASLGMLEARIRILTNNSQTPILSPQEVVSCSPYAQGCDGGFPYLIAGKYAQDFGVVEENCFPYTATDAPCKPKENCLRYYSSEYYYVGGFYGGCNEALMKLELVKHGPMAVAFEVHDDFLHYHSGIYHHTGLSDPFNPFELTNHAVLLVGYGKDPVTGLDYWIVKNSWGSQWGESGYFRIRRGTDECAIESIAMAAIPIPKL
Nature of the experiment: Cross reacting enzymes: dipeptidyl peptidase I. Conditions: concentration range 1*10^−5 M-1*10^−7 M. How it is done: DP I or cathepsin C is a lysosomal cysteine protease which cleaves off dipeptides from the N-terminus of their substrates (Gutman, H. R. & Fruton, J. S., 1948, J. Biol: Chem., 174, 851-858). It is classified as a cysteine protease. The enzyme used was purchased from Qiagen (Qiagen GmbH, Hilden, Germany). In order to get a fully active enzyme, the enzyme was diluted 1000fold in MES buffer pH5.6 (40 mM MES, 4 mM DTT, 4 mM KCl, 2 mM EDTA, 0.015% Brij) and pre-incubated for 30 min at 30° C.
50 μl glutaminyl pyrrolidine or glutaminyl thiazolidine in a concentration range of 1*10^−5 M-1*10^−7 M were admixed with 110 μl buffer-enzyme-mixture. The assay mixture was pre-incubated at 30° C. for 15 min. After pre-incubation, 100 μl histidylseryl-β-nitroaniline (2*10^-5M) was added and measurement of yellow color development due to β-nitroaniline release was performed at 30° C. and […] for 10 min., using a plate reader (HTS7000 plus, Applied Biosystems, Weiterstadt, Germany).
The IC50-values were calculated using Graphit 4.0.15 (Erithacus Software, Ltd., UK).

Experiment [3] concerns the target T3, Prolidase from porcine kidney (Sus scrofa, UniProt A0A5G2QQV1).
T3 construct: Prolidase from porcine kidney; purchased ICN Biomedicals, Eschwege, Germany; host or cells: porcine kidney
T3 sequence (A0A5G2QQV1 1-463): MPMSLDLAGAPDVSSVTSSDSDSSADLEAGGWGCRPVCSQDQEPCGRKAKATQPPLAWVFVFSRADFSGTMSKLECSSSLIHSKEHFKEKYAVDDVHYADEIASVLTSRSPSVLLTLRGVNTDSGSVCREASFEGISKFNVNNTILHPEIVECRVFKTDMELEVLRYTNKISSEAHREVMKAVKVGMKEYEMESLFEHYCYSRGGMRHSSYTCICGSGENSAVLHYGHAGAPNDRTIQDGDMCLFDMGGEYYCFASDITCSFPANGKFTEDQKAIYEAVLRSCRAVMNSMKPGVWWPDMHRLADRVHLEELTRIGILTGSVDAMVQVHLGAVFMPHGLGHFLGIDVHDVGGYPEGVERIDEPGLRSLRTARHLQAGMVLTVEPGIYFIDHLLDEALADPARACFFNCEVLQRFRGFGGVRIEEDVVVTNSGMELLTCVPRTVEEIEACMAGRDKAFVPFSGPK
Nature of the experiment: Cross reacting enzymes: prolidase. Particulars: Ile-Pro-OH 0.5 mM, pH 7.6; read-out: IC50 against prolidase. The procedure:
Prolidase from porcine kidney (ICN Biomedicals, Eschwege, Germany) was solved (1 mg/ml) in assay buffer (20 mM NH4(CH3COO)2, 3 mM MnCl2, pH 7.6). In order to get a fully active enzyme the solution was incubated for 60 min at room temperature.
450 μl glutaminyl pyrrolidine or glutaminyl thiazolidine in an concentration range of 5*10^−3 M-5*10^−7 M were admixed with 500 μl buffer solution (20 mM […], pH 7.6) and 250 μl Ile-Pro-OH (0.5 mM in the assay mixture). The assay mixture was pre-incubated at 30° C. for 5 min. After pre-incubation, 75 μl Prolidase (1:10 diluted in assay buffer) were added and measurement was performed at 30° C. and λ=220 nm for 20 min using a UV/Vis photometer, UV1 (Thermo Spectronic, Cambridge, UK).
The IC 50-values were calculated using Graphit 4.0.15 (Erithacus Software, Ltd., UK).

Structures are written as SMILES.

Experimental findings from patent US7368576B2, “Dipeptidyl peptidase IV inhibitors and their uses as anti-cancer agents” (Probiodrug AG, priority 2001, dated 2008) are described below.

T1 sequence (A0A5G2QK18 28-502): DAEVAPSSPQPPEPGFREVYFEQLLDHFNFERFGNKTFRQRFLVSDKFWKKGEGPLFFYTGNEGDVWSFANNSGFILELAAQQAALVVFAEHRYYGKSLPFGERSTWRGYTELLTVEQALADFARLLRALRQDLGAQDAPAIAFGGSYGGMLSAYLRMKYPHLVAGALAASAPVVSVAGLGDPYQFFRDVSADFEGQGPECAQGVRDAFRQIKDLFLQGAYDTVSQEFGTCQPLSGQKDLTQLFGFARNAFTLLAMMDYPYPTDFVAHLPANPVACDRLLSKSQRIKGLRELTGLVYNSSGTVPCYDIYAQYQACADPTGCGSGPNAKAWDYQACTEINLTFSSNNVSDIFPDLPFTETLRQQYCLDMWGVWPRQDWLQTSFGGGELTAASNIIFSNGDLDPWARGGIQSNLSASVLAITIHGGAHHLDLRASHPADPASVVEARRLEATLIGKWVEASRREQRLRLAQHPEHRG

As for `NC(=O)CCC(N)C(=O)N1CCCC1` (stereo not drawn) [Gln-Pyrr, glutaminyl pyrrolidine], in experiment [1], the Ki (in general, a measure of affinity in units of concentration, obtained from inhibition or displacement) was determined as 85.2 µM. In addition, the “inhibition of the DP I enzyme activity” value in experiment [2] was “No inhibition”. The concentration for half-maximal inhibition (IC50) (usually the concentration needed to halve the response being measured) in experiment [3] was 340 µM.
